From US7906499B2, “Polycarboxylated porphyrins and use thereof in treatment of metal toxicities” (priority 2005, dated 2011)
“And” between values parts separate entries of the source, which are not always exact repeats. Equal values may be shown once.

Tests used:
[1] = Absorption spectroscopy of porphyrin intermediates on addition of metal (metal binding), +Zn; set-up: key to Cpor 500 nm peak, change after metal addition / Cpor 538 nm peak, change after metal addition / Cpor 560 nm peak, change after metal addition / Cpor 608 nm peak, change after metal addition / Upor 498 nm peak, change after metal addition / Upor 540 nm peak, change after metal addition / Upor 565 nm peak, change after metal addition / Upor 612 nm peak, change after metal addition: Dis; peak disappeared.; Inc; Peak increased.; Dec; peak decreased.; = indicates no difference from the control.; (a)indicates new peak
Description: (§1) In the determining step, the individual is identified as subject to or predisposed to a polycarboxylated porphyrin-binding metal toxicity. Polycarboxylated porphyrin-binding metal toxicities include metal toxicity from environmental exposure, and disorders characterized by disturbances in metal ion homeostasis, particularly disorders that result in metal ion accumulation. Examples of such disorders include Wilson's disease, in which copper transport is defective (e.g. Nakayama, 2000); aceruloplasminemia, an iron metabolism disorder (e.g. Miyajima, 2003); and diseases involving metal-facilitated protein aggregation such as zinc, copper, or iron facilitated-aggregation of Aβ in Alzheimer's disease (e.g. Atamna, 2004), and aluminum, copper, iron, cobalt, or manganese facilitated-aggregation of α-synuclein in Parkinson's disease (e.g. Uversky, 2001). Conventional spectroscopy assays (e.g. Beer, 2003) can be used to determine whether a given polycarboxylated porphyrin binds the toxic metal of interest (e.g. Example 2, below). In particular embodiments, the metal is selected from the group consisting of Al^+++, Hg^++, […], Cu^+, Mn^+, and Zn^++.
(§2) We studied the interaction between metals and porphyrin intermediates.

[2] = Absorption spectroscopy of porphyrin intermediates on addition of metal (metal binding), +Cu; set-up: key to Cpor 370 nm peak, change after metal addition / Cpor 500 nm peak, change after metal addition / Cpor 538 nm peak, change after metal addition / Cpor 560 nm peak, change after metal addition / Cpor 608 nm peak, change after metal addition / Upor 395 nm peak, change after metal addition / Upor 498 nm peak, change after metal addition / Upor 540 nm peak, change after metal addition / Upor 565 nm peak, change after metal addition / Upor 612 nm peak, change after metal addition: Dis; peak disappeared.; Inc; Peak increased.; Dec; peak decreased.; = indicates no difference from the control.; (a)indicates new peak
Description: as §1, §2

[3] = Absorption spectroscopy of porphyrin intermediates on addition of metal (metal binding), +Mn; set-up: key to Cpor 370 nm peak, change after metal addition / Cpor 500 nm peak, change after metal addition / Cpor 538 nm peak, change after metal addition / Cpor 560 nm peak, change after metal addition / Cpor 608 nm peak, change after metal addition / Upor 395 nm peak, change after metal addition / Upor 498 nm peak, change after metal addition / Upor 540 nm peak, change after metal addition / Upor 565 nm peak, change after metal addition / Upor 612 nm peak, change after metal addition: Dis; peak disappeared.; Inc; Peak increased.; Dec; peak decreased.; = indicates no difference from the control.; (a)indicates new peak
Description: as §1, §2

[4] = molecular target: Aβ1-40 (Homo sapiens, UniProt P05067); experiment: Dissolution / prevention of metal-induced Aβ aggregates (filtration, 6E10 immunodetection); type: biochemical; conditions: "we found", with reference to Atamna, 2004
Aβ1-40, sequence (P05067 672-711 limits assumed): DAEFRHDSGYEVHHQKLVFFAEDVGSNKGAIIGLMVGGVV
Procedure: Aβ1-40 (10 ng in 200 μl) aggregation is induced by incubation (30 min, RT) with ZnCl2 (25 μM in TBS, pH 7.4), CuCl2 (5 μM in TBS, pH 6.8), or acidic conditions (pH 5.5, MES buffered saline). Aggregates are transferred to a 0.2μ nylon membrane by filtration using a 96-well ELIFA apparatus (Pierce). The aggregates are then washed (200 μl/well) with TBS alone, TBS containing 2 μM EDTA (control), or TBS with uroproporphyrin or coproporphyrin at varying concentrations (0.1 μM-1 mM). The membrane is fixed, probed with the anti-Aβ monoclonal antibody 6E10 (Senetek), and developed for exposure to ECL film. Quantification of retained, aggregated Aβ is performed by densitometry, calibrated against known amounts of the peptide.
Because metals, such as Zn++ and Cu+, trigger the pathologic aggregation of Aβ, an important causal factor in Alzheimers disease, we tested the ability of endogenous prophyrins to prevent Aβ aggregation using published methodology. […] The effect of porphyrins on Aβ is likely mediated by their ability to chelate metals. […] Endogenous porphyrins can be used directly, or their synthesis can be triggered in tissue by applying their precursors and/or cofactors, for therapeutic purposes including the treatment and prevention of disorders that involve Aβ aggregation and/or metal toxicity. […]

With `O=C(O)CCC1=C(CC(=O)O)c2cc3[nH]c(cc4nc(cc5[nH]c(cc1n2)c(CC(=O)O)c5CCC(=O)O)C(CCC(=O)O)=C4CC(=O)O)c(CC(=O)O)c3CCC(=O)O` [Upor, Uroporphyrin III] as the molecule, how does the “New peak after metal addition (marked a)” value [1] read?
The value was 575a nm.

And the “Upor 498 nm peak, change after metal addition” value (from here on “Upor 498 nm peak, change”) [1]?
The value was “Dis”.

And the “Upor 540 nm peak, change after metal addition” value (shortened to “Upor 540 nm peak, change”) [1]?
The value was “Inc”.

What about the “Upor 565 nm peak, change after metal addition” value (“Upor 565 nm peak, change” below) [1] of the same molecule?
Its value is “Dis”.

And the “Upor 612 nm peak, change after metal addition” value (from here on “Upor 612 nm peak, change”) [1]?
Its value is “Dis”.

What about the “Upor 395 nm peak after metal addition (peak position)” value ([1]; control peak 395 nm) of the same molecule?
Its value is 405 nm.

And the “New peak after metal addition (marked a)” value [2]?
The value was 525a nm.

And the “Upor 395 nm peak, change after metal addition” value [2]?
Its value is “Inc”.

What about the “Upor 498 nm peak, change” value [2] of the same molecule?
The value was “Dis”.

What about the “Upor 540 nm peak, change” value [2] of the same molecule?
The value was “Dis”.

And the “Upor 565 nm peak, change” value [2]?
The value was “Inc”.

And the “Upor 612 nm peak, change” value [2]?
The value was “Dis”.

And the “New peak after metal addition (marked a)” value [3]?
The value was 460a nm and 545a nm and 575a nm.

And the “Upor 395 nm peak, change after metal addition” value [3]?
The value was “Inc”.

What about the “Upor 498 nm peak, change” value [3] of the same molecule?
The value was “Dis”.

What about the “Upor 540 nm peak, change” value [3] of the same molecule?
The value was “Dis”.

And the “Upor 565 nm peak, change” value [3]?
The value was “Dis”.

And the “Upor 612 nm peak, change” value [3]?
The value was “Dis”.

For `C=CC1=C(C)c2cc3[n-]c(cc4[n-]c(cc5nc(cc1n2)C(C)=C5C=C)c(C)c4CCC(=O)O)c(CCC(=O)O)c3C.[Fe+2]` [heme], which “Displacement of metals from aggregated Aβ and disaggregation” value [4] is on record?
Its value is “displace metals from the aggregated Aβ and disaggregate the complex”.

What does the source list for Coproporphyrin III [Cpor]?
Cpor 500 nm peak, change after metal addition [1]: Dis; Cpor 538 nm peak, change after metal addition [1]: Inc; Cpor 560 nm peak, change after metal addition [1]: Inc; Cpor 608 nm peak, change after metal addition [1]: Dis; New peak after metal addition (marked a) [1]: 575a nm; Cpor 370 nm peak after metal addition (peak position) ([1]; control peak 370 nm): 400 nm; Cpor 370 nm peak, change after metal addition [2]: =; Cpor 500 nm peak, change after metal addition [2]: =; Cpor 538 nm peak, change after metal addition [2]: Dec; Cpor 560 nm peak, change after metal addition [2]: Dec; Cpor 608 nm peak, change after metal addition [2]: Dis; New peak after metal addition (marked a) [2]: 525a nm; Cpor 370 nm peak, change after metal addition [3]: =; Cpor 500 nm peak, change after metal addition [3]: =; Cpor 538 nm peak, change after metal addition [3]: =; Cpor 560 nm peak, change after metal addition [3]: =; Cpor 608 nm peak, change after metal addition [3]: =
